Experimental data reported in patent EP4121415B1, “INHIBITORS OF CYTOKININ OXIDASE DERIVED FROM 1-[2-(HYDROXYALKYL)PHENYL]-3-YLUREA, USE THEREOF AND PREPARATIONS CONTAINING THESE DERIVATIVES” (Univerzita Palackého v Olomouci, priority 2020, dated 2021).
“And” between values parts separate entries of the source, which are not always exact repeats. Equal values may be shown once. Read-outs that look alike come from different tables or passages of the source. Blank lines part the entries; values can stand above or below the compound they belong to.

Assays:
[1] = target: T1, maize enzyme cytokinin oxidase/dehydrogenase 1 (ZmCKX1) (Zea mays, UniProt Q9T0N8); experiment: ZmCKX1 inhibition, PMS/MTT assay; assay type: biochemical
T1 construct: made in house; host or cells: Yarrowia lipolytica
T1 sequence (Q9T0N8 19-534): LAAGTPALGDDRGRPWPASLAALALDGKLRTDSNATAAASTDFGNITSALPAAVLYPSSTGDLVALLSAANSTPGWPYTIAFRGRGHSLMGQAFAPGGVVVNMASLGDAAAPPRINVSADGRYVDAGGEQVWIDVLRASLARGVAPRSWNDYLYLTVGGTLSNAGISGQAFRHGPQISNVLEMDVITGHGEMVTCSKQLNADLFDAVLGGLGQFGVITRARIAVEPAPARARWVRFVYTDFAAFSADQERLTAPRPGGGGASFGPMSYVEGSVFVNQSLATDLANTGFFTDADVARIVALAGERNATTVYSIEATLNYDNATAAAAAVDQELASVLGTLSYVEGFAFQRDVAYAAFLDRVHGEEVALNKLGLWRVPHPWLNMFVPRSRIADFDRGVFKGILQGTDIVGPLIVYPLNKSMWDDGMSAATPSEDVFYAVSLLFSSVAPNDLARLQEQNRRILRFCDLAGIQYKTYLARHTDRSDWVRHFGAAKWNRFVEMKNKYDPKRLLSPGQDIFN
Procedure: The IC50 (concentration of a substance that causes 50% inhibition of the enzyme activity) was measured by PMS/MTT assay [phenazine methosulphate/3-(4,5-dimethylthiazol-2-yl)-2,5-diphenyltetrazolium bromide]. The assay was performed in 96-well microtiter plates. Each well contained a reaction mixture with a final concentration of: 0.1 M KH2PO4, pH 7.4, 1 mM MTT, 0.2 mM PMS, tested substance in a concentration range of 0.1 nM - 1 µM and 10 µM N^6-isopentenyladenine (iP) as a substrate. To this reaction mixture 100 µL of medium containing the active enzyme ZmCKX1 was added. The enzyme was produced by the yeast Yarrowia lipolytica and isolated according to the protocol (Kopečný D. et al., 2005, […] 87:1011-1022). The plates were incubated for 30 min at 37 °C and the enzymatic reaction was stopped by the addition of 25 µL of 35% acetic acid. Then, the absorbance at 578 nm was measured on a spectrophotometer, and the absorbance of the sample without the substrate was substracted as a reference value. The IC50 value was determined from the concentration-dependent curves in GraphPad Prism software. The values shown in Table 1 are the average of at least two measurements each performed in three repetitions. […] This also applies to 3,5-DCl-Ph-U derivatives.

[2] = tested on: segments of wheat leaves (Triticum aestivum cv. Hereward); experiment: wheat leaf senescence assay performed in the dark (chlorophyll retention in detached leaf segments); assay type: in vivo; details: for activation at 10 µM: Triticum aestivum, foliar, read-out: (% of chlorophyll above control)
Procedure: Seeds of winter wheat (Triticum aestivum cv. Hereward) was washed under running water for 4 hours and then sown in vermiculite saturated with Knop's nutrient solution. The trays with seeds were placed in an air-conditioned growth chamber with a 16/8 hour light regime (light intensity 50 µmol.m^-2.s^-1) and a temperature of 15 °C. After 7 days, the seedlings had developed the first […] and the second leaf began to grow. Top sections approximately 4 cm long were excised from the first leaves of 4 plants and their combined weight was adjusted to exactly 100 mg. The basal ends of these 4 leaf segments were placed in the wells of microtiter polystyrene plates containing solution (150 µL) of the tested derivative. The plates were placed in a plastic box with filter paper, which was saturated with water (to maintain the maximum humidity). After 96 hours of incubation in the dark at 25 °C, the leaf segments were removed and the chlorophyll was extracted to 5 mL of 80% ethanol by heating the leaf segments in ethanol at 80 °C for 40 min. The sample volume was then adjusted to 5 mL by adding 80% ethanol. The absorbance of the extracts was measured at 665 nm. Chlorophyll extracts from leaf segments incubated in deionized water (so-called yellow control) were also measured as controls. Freshly cut leaves (100 mg) were used as a green control, from which chlorophyll was extracted and measured in the same manner. The calculated values are the average of 5 replicates and the whole experiment was repeated two times. The tested compounds were dissolved in dimethyl sulfoxide (DMSO) to a concentration 10^-2 M. This stock solution was further diluted with water to a concentration of 10 micromolar. At this concentration, the substances were tested.

[3] = tested on: Arabidopsis thaliana (ecotype Col-0); experiment: abiotic stress (saline, osmotic) assay on Arabidopsis seedlings; assay type: in vivo; details: 10 nM, 6 days of growth after transfer
Procedure: Compound 61 was tested for its ability to alleviate the effects of abiotic stress, represented by application of 100 mM NaCl (saline stress) or 100 mM mannitol (osmotic stress), respectively. The assay was performed as described in (Ugena et al., 2018, Front Plant Sci. 9, 1327. doi: 10.3389/fpls.2018.01327). Arabidopsis thaliana (ecotype Col-0) seeds were germinated on full MS growth medium for three days without presence of any treatment. After that they were transferred to the same medium containing 10 nM concertation of compound 61 in the absence or presence of the abiotic stress factor. Dimethyl sulfoxide (DMSO) was used as a solvent control (mock) in all variants. The dynamics of the shoot biomass formation and the relative growth rate were evaluated by recording the green area twice a day during the 6 days of growth after the seedling transfer. The abiotic stress conditions caused severe penalty in both traits evaluated. The salt and mannitol stress reduced the shoot yield by 63 % and 42 %, respectively, whereas presence of the compound 61 turned back the penalty by almost 20 % (Table 3 and Fig. 1). […] 11 % (Table 3).

[4] = tested on: Arabidopsis thaliana; experiment: foliar application, seed yield in Arabidopsis; assay type: in vivo
Procedure: In our experiment, young Arabidopsis thaliana plants were grown in small pots in soil and they were sprayed with a 0.1 µM compound 61 (aq solution) in phase of 4 true leaves (about 14-20 days after sowing). Treated plants (n = 25) and control plants (n = 25) were further grown under optimal conditions until their natural death. Subsequently, seeds were harvested from all plants and the yield was evaluated. […] This means a 19 % increase in total seed yield.
This means an increase in total seed yield of 23 %.

[5] = tested on: Arabidopsis thaliana; experiment: foliar application, lifespan of Arabidopsis under optimal conditions; assay type: in vivo; details: sprayed with 0.1 µM aqueous solution in phase of 4 true leaves, n = 25, compared to control plants
Procedure: Young Arabidopsis thaliana plants grown in small pots in a soil were sprayed with a 0.1 µM aqueous solution of substance 61 in phase of 4 true leaves (within 14-20 days after sowing).
Treated plants (n = 25) and control plants (n = 25) were further grown under optimal conditions until their natural death as in Example 25. […] The treated plants remained more green for a longer period of time (delayed senescence), which allowed them to accumulate more products of photosynthesis, which in turn may have contributed to a higher yield of these plants.

[6] = tested on: winter rapeseed; experiment: field trial, foliar application, seed yield of winter rapeseed; assay type: in vivo; details: 5 µM in 300 L per hectare; for weight of one thousand seeds: control 5.51 g; for seed yield compared to the control (100 %): foliar
Procedure: In 2017, the effect of foliar application of compound 61 (5 µM concentration in a volume of 300 L per hectare) on seed yield of winter rapeseed in field conditions was determined. The field trials were performed according to "good agricultural practice". Substance 61 was applied to plants in two different growth phases - BBCH 30 and BBCH 33-35. […] The weight of one thousand seeds in the treated plants was 5.7 g (BBCH 30) and 5.8 g (BBCH 33-35). This phenomenon contributed to the increase in total seed yield.

[7] = tested on: winter wheat (Triticum aestivum cv. Hereward); experiment: salt-induced senescence of wheat plants; assay type: in vivo; details: 100 nM aqueous solution, 75 mM NaCl seven days after planting, assessed 30 days after planting
Procedure: To investigate the effects of compounds 64 and 66 on salt-induced senescence, seeds of winter wheat (Triticum aestivum cv. Hereward) were washed under running water for 4 hours and then sown on perlite soaked with water (control) or 100 nM aqueous solution of compounds 64 or 66. Trays with seeds were placed in a growth chamber at 25 °C for 16/8 h light/dark at an intensity of 50 µmol.m^-2.s^-1. Seven days after planting, the plants were treated with 75 mM NaCl solution. The plants were allowed to grow and the plant damage was assessed 30 days after planting.
While untreated plants have the first leaves dead and the second leaves yellow, plants treated with CKX inhibitors have the first leaves yellowing and the second leaves green. […] This in vivo experiment is evidence that CKX inhibitors prolong the photosynthetic activity of wheat plants that have been exposed to environmental stress.

[8] = 10 µM N6-isopentenyladenine (iP) as substrate, pH 7.4, 30 min at 37 °C, average of at least two measurements, read-out: IC50 (µM) ZmCKX1
[9] = 10 micromolar, 96 hours in the dark at 25 °C, compared to yellow control (0,2% DMSO)
[10] = sprayed with 0.1 µM aq solution in phase of 4 true leaves, n = 25, optimal conditions

SMILES: COc1cccc(NC(=O)Nc2cc(F)ccc2CCO)c1 [Compound 51, 1-[5-fluoro-2-(2-hydroxyethyl)phenyl]-3-(3-methoxyphenyl)urea]
- IC50 [1, 8]: 0.08 µM
- activation at 10 µM [2, 9]: 30%

SMILES: COc1cccc(NC(=O)Nc2cc(Cl)ccc2CCO)c1 [Compound 52, 1-[5-chloro-2-(2-hydroxyethyl)phenyl]-3-(3-methoxyphenyl)urea]
- IC50 [1, 8]: 0.066 µM
- activation at 10 µM [2, 9]: 37%

SMILES: COc1cccc(NC(=O)Nc2cc(Br)ccc2CCO)c1 [Compound 53]
- IC50 [1, 8]: 0.074 µM
- (% of chlorophyll above control) [2, 9]: 35%

SMILES: CSc1cccc(NC(=O)Nc2cc(Cl)ccc2CCO)c1 [Compound 60, 1-[5-chloro-2-(2-hydroxyethyl)phenyl]-3-(3-methylsulphanylphenyl)urea]
- IC50 [1, 8]: 0.035 µM
- activation at 10 µM [2, 9]: 36%

SMILES: O=C(Nc1cccc(OC(F)(F)F)c1)Nc1ccccc1CCO [Compound 61, 1-[2-(2-Hydroxyethyl)phenyl]-3-(3-trifluoromethoxyphenyl)urea]
- IC50 [1]: 0.18 µM
- activation at 10 µM ([2]; 96 h): 24%
- shoot yield: penalty caused by stress turned back ([3]; 100 mM NaCl (saline stress) or 100 mM mannitol (osmotic stress)): ~20%
- average relative growth rate: effect of the stressors reduced ([3]; 100 mM NaCl or 100 mM mannitol): ~11%
- increase in total seed yield ([4]; 0.1 µM spray, compared to control plants): 19% and 23%
- seeds per silique (average) [4, 10]: 52 (± 4) and 49 (± 6)
- total seed yield per plant [4, 10]: 155 (± 19) mg and 138 (± 15) mg
- longer viability (average) [5]: 10 days
- weight of one thousand seeds ([6]; applied at BBCH 30): 5.7 g
- weight of one thousand seeds ([6]; applied at BBCH 33-35): 5.8 g
- seed yield compared to the control (100 %) ([6]; applied at BBCH 30, 2017): 105.7%
- seed yield compared to the control (100 %) ([6]; applied at BBCH 33-35, 2017): 107.5%

SMILES: O=C(Nc1cc(Cl)cc(OC(F)(F)F)c1)Nc1ccccc1CCO [Compound 64, 1-(3-Chloro-5-trifluoromethoxyphenyl)-3-[2-(2-hydroxyethyl)phenyl]urea]
- IC50 [1]: 0.058 µM
- plant damage and senescence under salinity stress [7]: reduced the damage and delayed the senescence
- total chlorophyll content in whole plants: untreated salinity-stressed plants have less chlorophyll than treated stressed plants [7]: 27%

SMILES: O=C(Nc1cc(Br)cc(OC(F)(F)F)c1)Nc1ccccc1CCO [Compound 65, 1-(3-Bromo-5-trifluoromethoxyphenyl)-3-[2-(2-hydroxyethyl)phenyl]urea]
- IC50 [1]: 0.035 µM
- (% of chlorophyll above control) [2, 9]: 30%

SMILES: O=C(Nc1cccc(SC(F)(F)F)c1)Nc1ccccc1CCO [Compound 68, 1-[2-(2-Hydroxyethyl)phenyl]-3-(3-trifluoromethylsulphanylphenyl)urea]
- IC50 [1, 8]: 0.074 µM
- activation at 10 µM [2, 9]: 34%

Further lines, with some results ahead:

- IC50 [1, 8]: 0.01 µM
SMILES: NCCNc1cc(NC(=O)Nc2cc(Cl)ccc2CO)cc(OC(F)(F)F)c1 [Compound 40, 1-(5-chloro-2-hydroxymethylphenyl)-3-[3-(2-aminoethylamino)-5-trifluoromethoxyphenyl]urea]
- activation at 10 µM [2, 9]: 39%

- IC50 [1, 8]: 0.08 µM
SMILES: O=C(Nc1cccc(SC(F)(F)F)c1)Nc1cc(F)ccc1CO [Compound 42, 1-(5-fluoro-2-hydroxymethylphenyl)-3-(3-trifluoromethylsulphanylphenyl)urea]
- activation at 10 µM [2, 9]: 25%

- IC50 [1, 8]: 0.008 µM
SMILES: COc1cc(NCCN)cc(NC(=O)Nc2cc(Cl)ccc2CCO)c1 [Compound 59, 1-[5-chloro-2-(2-hydroxyethyl)phenyl]-3-[3-(2-aminoethylamino)-5-methoxyphenyl]urea]
- activation at 10 µM [2, 9]: 48%

- IC50 [1, 8]: 0.021 µM
SMILES: O=C(Nc1cccc(OC(F)(F)F)c1)Nc1cc(Cl)ccc1CCO [Compound 62, 1-[5-chloro-2-(2-hydroxyethyl)phenyl]-3-(3-trifluoromethoxyphenyl)urea]
- activation at 10 µM [2, 9]: 39%

- IC50 [1, 8]: 0.029 µM
SMILES: O=C(Nc1cc(NCCO)cc(OC(F)(F)F)c1)Nc1ccccc1CCO [Compound 66, 1-[3-(2-Hydroxyethylamino)-5-trifluoromethoxyphenyl]-3-[2-(2-hydroxyethyl)phenyl]urea]
- activation at 10 µM [2, 9]: 36%
- plant damage and senescence under salinity stress [7]: reduced the damage and delayed the senescence
- total chlorophyll content in whole plants: untreated salinity-stressed plants have less chlorophyll than treated stressed plants [7]: 27%
